Data on 13 compounds can be found in PubChem BioAssay (NCI).

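1) Cells in 96-well plates. 2) Compound, 48 h, 5 concentrations. 3) Linear interpolation between surrounding doses. 4) Unreached endpoint = highest concentration. Definition used: TGI = concentration required for complete inhibition of growth.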

Among the test systems are HCT-15 colon; NCI-H23 lung; UACC-62 melanoma; RXF 393 renal; M14 melanoma; MDA-MB-231 breast; RPMI-8226 leukemia; NCI-H226 lung; SK-MEL-28 melanoma.
What all share (assay): NCI anticancer screen, dose series, 48 h

On to `COc1ccc(-c2c(N)n(-c3nc4ccccc4s3)c(=O)c3cc([N+](=O)[O-])ccc23)cc1`, for which the TGI was over 100 µM in the assay with HCT-15 colon; 45.2 µM in the assay with NCI-H23 lung; over 100 µM in the assay on UACC-62 melanoma; 30.9 µM with RXF 393 renal; 47.6 µM in the assay on M14 melanoma; 48.7 µM in the assay on MDA-MB-231 breast. For the same compound, the TGI in the assay on RPMI-8226 leukemia, in the assay with NCI-H226 lung and in the assay with SK-MEL-28 melanoma was over 100 µM throughout.

On to `O=C(Cn1c2c(c3ccccc31)CCCC2)NC1CCCCC1`, for which the TGI with HCT-15 colon, in the assay with NCI-H23 lung, in the assay on UACC-62 melanoma, with M14 melanoma, in the assay on RPMI-8226 leukemia and in the assay with SK-MEL-28 melanoma was over 100 µM throughout.

Consider `[N-]=[N+]=Nc1c(-c2ccccc2)c(Cl)nc2ccccc12`, for which the TGI in the assay with HCT-15 colon, in the assay on NCI-H23 lung, with RXF 393 renal, in the assay with M14 melanoma, with MDA-MB-231 breast and in the assay on RPMI-8226 leukemia was over 100 µM throughout. The TGI in the assay with NCI-H226 lung and in the assay with SK-MEL-28 melanoma was over 100 µM each time.

Take `N#CC(c1ccccc1)c1nc2ccc(=N)cc-2n(O)c1C(C#N)c1ccccc1` (stereo not drawn): the TGI in the assay on HCT-15 colon, in the assay with NCI-H23 lung, with UACC-62 melanoma, in the assay with RXF 393 renal, with M14 melanoma and in the assay with NCI-H226 lung was over 100 µM each time. For the same compound, the TGI with SK-MEL-28 melanoma was over 100 µM.

`CCOC(=O)C1=C(O)C(=O)c2ccsc2C1=O`: the TGI in the assay on HCT-15 colon, in the assay on NCI-H23 lung, in the assay on UACC-62 melanoma, in the assay on RXF 393 renal, in the assay on M14 melanoma and with RPMI-8226 leukemia was over 100 µM in each case. Also, the TGI in the assay on NCI-H226 lung and in the assay on SK-MEL-28 melanoma was over 100 µM in each case.

As to `CC12NN=NC1C(=O)NC2=O` (stereo not drawn), the TGI in the assay with HCT-15 colon, in the assay on NCI-H23 lung, in the assay with UACC-62 melanoma, with RPMI-8226 leukemia, in the assay on NCI-H226 lung and with SK-MEL-28 melanoma was over 100 µM throughout.

In the case of `O=C1C2CC=CCC2C(=O)N1n1c(-c2ccccc2)n[nH]c1=O` (stereo not drawn), the TGI with HCT-15 colon, in the assay on NCI-H23 lung, in the assay on UACC-62 melanoma, in the assay with RXF 393 renal, with M14 melanoma and in the assay on MDA-MB-231 breast was over 100 µM in each case. In addition, the TGI with RPMI-8226 leukemia and with NCI-H226 lung was over 100 µM in each case.

As for `COc1cc(OC)c(/C=C2\N=C(C)N(Nc3nnc(NN4C(=O)/C(=C/c5c(OC)cc(OC)cc5OC)N=C4C)c4ccccc34)C2=O)c(OC)c1`, the TGI in the assay on HCT-15 colon, in the assay on NCI-H23 lung, with UACC-62 melanoma, with RXF 393 renal, in the assay on M14 melanoma and with RPMI-8226 leukemia was over 100 µM throughout. The TGI with NCI-H226 lung and with SK-MEL-28 melanoma was over 100 µM each time.

On to `Cn1c(/C=C(\O)c2ccc(Cl)cc2)nc2ccccc21`, for which the TGI with HCT-15 colon, with NCI-H23 lung, in the assay with UACC-62 melanoma, in the assay on RXF 393 renal, in the assay with M14 melanoma and with RPMI-8226 leukemia was over 100 µM each time. The TGI in the assay with NCI-H226 lung and in the assay on SK-MEL-28 melanoma was over 100 µM each time.

In the case of `CCO[C@]12C[C@H](OC)[C@@]3(O)CC(C1[C@H]3OCc1ccccc1)C13C4C2[C@H](OC)C1[C@](COC)(CN4CC)[C@H](O)C[C@@H]3OC` (stereo partly drawn), the TGI with HCT-15 colon, in the assay with NCI-H23 lung, with UACC-62 melanoma, with RXF 393 renal, with M14 melanoma and in the assay with RPMI-8226 leukemia was over 100 µM in each case. Also, the TGI in the assay on NCI-H226 lung and in the assay with SK-MEL-28 melanoma was over 100 µM in each case.

For `CCOC1(COP(=O)(OCc2ccccc2)OCc2ccccc2)COC(COP(=O)(OCc2ccccc2)OCc2ccccc2)(OCC)CO1` (stereo not drawn), the TGI in the assay with HCT-15 colon, with NCI-H23 lung, in the assay on UACC-62 melanoma, with RXF 393 renal, in the assay on M14 melanoma and in the assay with RPMI-8226 leukemia was over 100 µM in each case. Besides, the TGI in the assay with NCI-H226 lung and in the assay with SK-MEL-28 melanoma was over 100 µM throughout.

For the compound `CC(=O)C1=CSC2[C@H](NC(=O)Cc3ccccc3)C(=O)N2C1C(=O)OC(c1ccccc1)c1ccccc1` (stereo partly drawn), the TGI with NCI-H23 lung, in the assay with UACC-62 melanoma, in the assay on M14 melanoma, in the assay on RPMI-8226 leukemia, in the assay with NCI-H226 lung and in the assay with SK-MEL-28 melanoma was over 100 µM in each case.

With `CN(CCO)c1nc2c(c(=O)[nH]1)CCC2`, the TGI in the assay on HCT-15 colon, in the assay on NCI-H23 lung, with UACC-62 melanoma, in the assay on RXF 393 renal, in the assay with M14 melanoma and with RPMI-8226 leukemia was over 100 µM each time. Moreover, the TGI in the assay on NCI-H226 lung and in the assay on SK-MEL-28 melanoma was over 100 µM throughout.
